Reference: the Kinase Knowledgebase extract (Sharma et al. 2016)

What follows are compounds tested against MAPK14 (UniProt Q16539) (assay: Enzyme Assay).
Sequence of MAPK14 (Q16539 whole entry, looked up): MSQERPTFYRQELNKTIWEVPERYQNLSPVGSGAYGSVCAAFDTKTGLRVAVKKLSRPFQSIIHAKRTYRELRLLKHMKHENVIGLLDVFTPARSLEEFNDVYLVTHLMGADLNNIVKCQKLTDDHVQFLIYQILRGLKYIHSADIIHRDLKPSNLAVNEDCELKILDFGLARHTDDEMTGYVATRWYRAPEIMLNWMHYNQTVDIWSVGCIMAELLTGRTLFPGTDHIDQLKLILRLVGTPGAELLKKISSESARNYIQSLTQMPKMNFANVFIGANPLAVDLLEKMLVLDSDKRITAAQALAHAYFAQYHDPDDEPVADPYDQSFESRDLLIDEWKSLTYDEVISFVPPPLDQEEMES

O=S(=O)(Nc1ccc(Cl)c(COc2cccnc2)c1)c1ccccc1 and O=C(Nc1ccc(Cl)c(COc2cccnc2)c1)c1ccccc1 cannot be ordered by IC50: < 200 µM for the first, < 20 µM for the second.

Nc1ncccc1OCc1cccc(Cl)c1 and Nc1ncccc1OCc1ccc(Cl)c(F)c1 cannot be ordered by IC50: < 1000 µM for the first, < 200 µM for the second.

O=C(Nc1ccc(F)c(COc2cnccn2)c1)Nc1cc(-c2ccc(Cl)cc2)nn1-c1ccccc1 and O=C(Nc1ccc(F)c(COc2cnccn2)c1)Nc1cc(-c2ccc(Cl)cc2)nn1-c1ccc(F)cc1 cannot be ordered by IC50: < 2 µM for the first, < 2 µM for the second.

O=C(Nc1ccc(Cl)c(COc2cnccn2)c1)c1ccccc1 and Nc1ncccc1OCc1cc(NC(=O)c2ccccc2)ccc1Cl cannot be ordered by IC50: < 20 µM for the first, < 20 µM for the second.

OCCNc1ccc(OCc2ccccc2)cn1 and Clc1cccc(Cl)c1COc1ccc(NCc2ccccc2)nc1 cannot be ordered by IC50: < 200 µM for the first, < 200 µM for the second.

O=C(Nc1ccccc1)Oc1cccc(COc2cnccn2)c1 and c1ccc(CNc2cccc(COc3cnccn3)c2)cc1 cannot be ordered by IC50: < 200 µM for the first, < 1000 µM for the second.

CC(C)(C)c1cc(C(=O)Nc2ccc(F)c(COc3cnccn3)c2)cc(C(C)(C)C)c1 and CC(C)(C)c1ccc(C(=O)Nc2ccc(F)c(COc3cnccn3)c2)cc1 cannot be ordered by IC50: < 2 µM for the first, < 20 µM for the second.

Nc1cnc(OCc2ccccc2)cn1 and Nc1ncc(OCc2ccccc2)nc1Br cannot be ordered by IC50: < 1000 µM for the first, < 1000 µM for the second.

Nc1ncccc1OCc1csc2ccccc12 and COc1ccccc1COc1cccnc1N cannot be ordered by IC50: < 1000 µM for the first, < 1000 µM for the second.

C[S+]([O-])c1nnc(NC(=O)Nc2ccc(F)c(COc3cnccn3)c2)s1 (centres undefined) and CC(C)c1nnc(NC(=O)Nc2ccc(F)c(COc3cnccn3)c2)s1 cannot be ordered by IC50: < 1000 µM for the first, < 20 µM for the second.

O=C(CN1CCCCC1)Nc1cnc(OCc2c(Cl)cccc2Cl)cn1 and O=C(CN1CCOCC1)Nc1cnc(OCc2c(Cl)cccc2Cl)cn1 cannot be ordered by IC50: < 200 µM for the first, < 200 µM for the second.

O=C(Nc1ccc(F)c(COc2cnccn2)c1)c1cccc(Oc2ccccc2)c1 and O=C(Nc1ccc(F)c(COc2cnccn2)c1)c1ccc2ccccc2c1 cannot be ordered by IC50: < 2 µM for the first, < 20 µM for the second.

O=S(=O)(c1ccccc1)N(c1ccc(Cl)c(COc2cccnc2)c1)S(=O)(=O)c1ccccc1 and O=C(Nc1ccccc1)Nc1ccc(Cl)c(COc2cccnc2)c1 cannot be ordered by IC50: < 1000 µM for the first, < 20 µM for the second.

Clc1cccc(Cl)c1COc1cnc(NCc2ccccc2)cn1 and CC(Nc1cnc(OCc2c(Cl)cccc2Cl)cn1)c1ccccc1 (centres undefined) cannot be ordered by IC50: < 20 µM for the first, < 20 µM for the second.

CC(C)(C)c1cc(NC(=O)Nc2ccc(F)c(COc3cnccn3)c2)n(-c2ccc(S(C)(=O)=O)cc2)n1 and CC(C)(C)c1cc(NC(=O)Nc2ccc(F)c(COc3cnccn3)c2)n(-c2ccc(Cl)cc2)n1 cannot be ordered by IC50: < 2 µM for the first, < 2 µM for the second.

CCNC(=O)c1cnc(OCc2c(Cl)cccc2Cl)cn1 and O=C(NCCO)c1cnc(OCc2c(Cl)cccc2Cl)cn1 cannot be ordered by IC50: < 1000 µM for the first, < 1000 µM for the second.

Clc1cccc(Cl)c1COc1cnccn1 and Nc1nccnc1OCc1c(Cl)cccc1Cl cannot be ordered by IC50: < 200 µM for the first, < 1000 µM for the second.

COc1cc(C(=O)Nc2ccc(F)c(COc3cnccn3)c2)nc(Cl)n1 and O=C(Nc1ccc(F)c(COc2cnccn2)c1)c1cc(On2nnc3ccccc32)nc(Cl)n1 cannot be ordered by IC50: < 1000 µM for the first, < 1000 µM for the second.

Nc1ncccc1OCc1cccc2ccoc12 and Nc1ncccc1OCc1cccc(Cl)c1F cannot be ordered by IC50: < 1000 µM for the first, < 1000 µM for the second.

O=C(Nc1ccc(F)c(COc2cnccn2)c1)c1cc(N2CCOCC2)nc(N2CCOCC2)n1 and O=C(Nc1ccc(F)c(COc2cccnc2)c1)c1cncc(N2CCOCC2)n1 cannot be ordered by IC50: < 2 µM for the first, < 20 µM for the second.

c1cc(COc2cccnc2)cc(COc2cccnc2)c1 and O=C(Nc1cccc(COc2cccnc2)c1)c1ccccc1 cannot be ordered by IC50: < 1000 µM for the first, < 200 µM for the second.

Nc1ncccc1OCc1ccccc1C(F)(F)F and Nc1ncccc1OCc1cccc(OC(F)(F)F)c1 cannot be ordered by IC50: < 100 µM for the first, < 10000 µM for the second.

O=C(Nc1ccc(F)c(COc2cnccn2)c1)c1ccc(=O)n(Cc2ccccc2)c1 and O=C(Nc1ccc(F)c(COc2cnccn2)c1)c1ccc(-c2ccccc2)cc1 cannot be ordered by IC50: < 20 µM for the first, < 200 µM for the second.

O=C(Nc1ccc(F)c(COc2cnccn2)c1)Nc1nnc(Cc2ccccc2)s1 and O=C(Nc1ccc(F)c(COc2cnccn2)c1)Nc1nnc(-c2ccccc2)s1 cannot be ordered by IC50: < 2 µM for the first, < 200 µM for the second.

CC(C)c1nnc(NC(=O)Nc2ccc(F)c(COc3cccnc3)c2)s1 and CSc1nnc(NC(=O)Nc2ccc(F)c(COc3cnccn3)c2)s1 cannot be ordered by IC50: < 20 µM for the first, < 200 µM for the second.

Nc1ccc(Cl)c(COc2cccnc2)c1 and NC(=O)Nc1ccc(Cl)c(COc2cccnc2)c1 cannot be ordered by IC50: < 1000 µM for the first, < 20 µM for the second.

O=C(CC1CCOCC1)Nc1cnc(OCc2c(Cl)cccc2Cl)cn1 and CN1CCC(CC(=O)Nc2cnc(OCc3c(Cl)cccc3Cl)cn2)CC1 cannot be ordered by IC50: < 200 µM for the first, < 200 µM for the second.

CC(C)(C)c1csc(NC(=O)Nc2ccc(F)c(COc3cnccn3)c2)n1 and CC(C)(C)c1cc(NC(=O)Nc2ccc(Cl)c(COc3cnccn3)c2)[nH]n1 cannot be ordered by IC50: < 20 µM for the first, < 20 µM for the second.

O=C(Nc1cnc(OCc2c(Cl)cccc2Cl)cn1)N1CCOCC1 and Clc1cccc(Cl)c1COc1cnc(NC2CCOCC2)cn1 cannot be ordered by IC50: < 2 µM for the first, < 200 µM for the second.

Cc1cc(-n2nc(C(C)(C)C)cc2NC(=O)Nc2ccc(F)c(COc3cnccn3)c2)nc(C)n1 and CC(C)(C)c1cc(NC(=O)Nc2ccc(F)c(COc3cnccn3)c2)n(-c2ccc(Cl)nn2)n1 cannot be ordered by IC50: < 2 µM for the first, < 2 µM for the second.

Nc1cccc(COc2cncc(Cl)n2)c1 and Nc1ccc(Cl)c(COc2cnccn2)c1 cannot be ordered by IC50: < 1000 µM for the first, < 1000 µM for the second.

O=C(Nc1ccc(F)c(COc2cnccn2)c1)c1nnc(-c2ccccc2)o1 and O=C(Nc1ccc(F)c(COc2cnccn2)c1)Nc1n[nH]cc1-c1ccccc1 cannot be ordered by IC50: < 2 µM for the first, < 20 µM for the second.

c1cncc(OCc2cccc3ccccc23)c1 and O=C(Nc1ccc(Cl)c(COc2cccnc2)c1)Oc1ccccc1 cannot be ordered by IC50: < 1000 µM for the first, < 20 µM for the second.

O=C(Nc1ccc(F)c(COc2cnccn2)c1)Nc1nnc(CC2CC2)s1 and Cc1cc(C)c2nc(NC(=O)Nc3ccc(F)c(COc4cnccn4)c3)sc2c1 cannot be ordered by IC50: < 2 µM for the first, < 1000 µM for the second.

CC(C)(C)c1cc(NC(=O)Nc2ccc(Cl)c(COc3cccnc3)c2)n(-c2ccccc2)n1 and CC(C)(C)c1cc(NC(=O)Nc2ccc(F)c(COc3cnccn3)c2)n(-c2ccccc2)n1 cannot be ordered by IC50: < 2 µM for the first, < 2 µM for the second.

Nc1ncccc1OCc1ccccc1CS(=O)(=O)c1ccccc1 and Nc1ncccc1OCc1ccccc1-c1ccccc1 cannot be ordered by IC50: < 1000 µM for the first, < 10 µM for the second.

CC(C)(C)c1cc(C(=O)Nc2ccc(F)c(COc3cnccn3)c2)n(Cc2ccccc2)n1 and CC(C)(C)c1cc(NC(=O)Nc2ccc(F)c(COc3cnccn3)c2)n(Cc2ccccc2)n1 cannot be ordered by IC50: < 20 µM for the first, < 2 µM for the second.

O=C1c2ccccc2C(O)N1c1ccc(Cl)c(COc2cccnc2)c1 (centres undefined) and O=C(Nc1ccc(Cl)c(COc2cccnc2)c1)c1cccc(Cl)c1 cannot be ordered by IC50: < 200 µM for the first, < 20 µM for the second.

Nc1ncccc1OCc1cc2c(cc1Cl)OCO2 and Nc1ncccc1OCc1ccc(F)cc1Cl cannot be ordered by IC50: < 1000 µM for the first, < 1000 µM for the second.

Clc1cccc(Cl)c1COc1ccc(N2CCOCC2)nc1 and O=C(Nc1ccc(Cl)c(COc2cccnc2)c1)c1ccnc(N2CCOCC2)c1 cannot be ordered by IC50: < 1000 µM for the first, < 2 µM for the second.

CC(C)(C)c1ccc2[nH]cc(CC(=O)Nc3ccc(F)c(COc4cnccn4)c3)c2c1 and CC(C)(C)c1cc(C(=O)Nc2ccc(F)c(COc3cnccn3)c2)n(Cc2ccc(F)cc2)n1 cannot be ordered by IC50: < 200 µM for the first, < 20 µM for the second.

Cc1nc2sccn2c1C(=O)Nc1ccc(F)c(COc2cnccn2)c1 and Cc1nc(-c2cc(C(=O)Nc3ccc(F)c(COc4cnccn4)c3)no2)cs1 cannot be ordered by IC50: < 2 µM for the first, < 200 µM for the second.

Nc1ncccc1OCc1ccc(F)c(F)c1 and Nc1ncccc1OCc1c(F)cc(F)cc1F cannot be ordered by IC50: < 1000 µM for the first, < 1000 µM for the second.

CC(C)(C)C(=O)Nc1cnc(OCc2c(Cl)cccc2Cl)cn1 and CC(C)(CO)NC(=O)Nc1cnc(OCc2c(Cl)cccc2Cl)cn1 cannot be ordered by IC50: < 200 µM for the first, < 2 µM for the second.

O=C(Nc1ccc(F)c(COc2cnccn2)c1)Nc1cc(C2CCCO2)nn1-c1ccc(F)cc1 (centres undefined) and CC(C)(C)c1ccc(-n2nc(C3CC3)cc2NC(=O)Nc2ccc(F)c(COc3cnccn3)c2)cc1 cannot be ordered by IC50: < 2 µM for the first, < 200 µM for the second.

CC(CO)(CO)NC(=O)c1cnc(OCc2c(Cl)cccc2Cl)cn1 and CNc1cnc(OCc2c(Cl)cccc2Cl)cn1 cannot be ordered by IC50: < 2 µM for the first, < 200 µM for the second.

Clc1ncccc1OCc1ccccc1 and Nc1ncccc1OCc1c(F)cccc1Cl cannot be ordered by IC50: < 2000 µM for the first, < 1000 µM for the second.

Nc1ncccc1OCc1cccc(C(=O)NCc2cccc3ccccc23)c1 and Nc1ncccc1OCc1cccc(C(=O)NCC2CC2)c1 cannot be ordered by IC50: < 1000 µM for the first, < 1000 µM for the second.

CC(C)(C)c1ccccc1NC(=O)Nc1ccc(F)c(COc2cccnc2)c1 and O=C(Nc1ccc(F)c(COc2cccnc2)c1)c1cccc(F)c1 cannot be ordered by IC50: < 20 µM for the first, < 200 µM for the second.

CC(C)(C)n1nc(-c2ccccc2)cc1NC(=O)Nc1ccc(F)c(COc2cnccn2)c1 and O=C(Nc1ccc(F)c(COc2cnccn2)c1)Nc1cc(-c2ccccc2)nn1-c1ccccc1 cannot be ordered by IC50: < 20 µM for the first, < 2 µM for the second.

O=C(Nc1ccc(Cl)c(COc2cccnc2)c1)c1cccc(C(F)(F)F)c1 and CC(C)(C)c1cccc(C(=O)Nc2ccc(Cl)c(COc3cccnc3)c2)c1 cannot be ordered by IC50: < 20 µM for the first, < 2 µM for the second.

O=C(Cn1ccnc1)Nc1cnc(OCc2c(Cl)cccc2Cl)cn1 and CN1CCN(CC(=O)Nc2cnc(OCc3c(Cl)cccc3Cl)cn2)CC1 cannot be ordered by IC50: < 20 µM for the first, < 20 µM for the second.

C=CS(=O)(=O)Nc1cnc(OCc2c(Cl)cccc2Cl)cn1 and CC1(C(=O)Nc2cnc(OCc3c(Cl)cccc3Cl)cn2)CC1 cannot be ordered by IC50: < 200 µM for the first, < 200 µM for the second.

CC(=O)Nc1ccc(Cl)c(COc2cccnc2)c1 and O=C(Nc1ccc(Cl)c(COc2cccnc2)c1)c1ccncc1 cannot be ordered by IC50: < 1000 µM for the first, < 200 µM for the second.

CC(C)(C)c1cc(NC(=O)Nc2ccc(F)c(COc3cnccn3)c2)n(-c2nc3ccccc3s2)n1 and CC(C)(C)c1cc(NC(=O)Nc2ccc(F)c(COc3cnccn3)c2)n(-c2ccc(F)cc2F)n1 cannot be ordered by IC50: < 20 µM for the first, < 2 µM for the second.

O=C(Nc1cccc(COc2cccnc2)c1)c1cc(F)cc(N2CCOCC2)c1 and O=C(Nc1ccccc1)C(=O)Nc1ccc(Cl)c(COc2cccnc2)c1 cannot be ordered by IC50: < 20 µM for the first, < 2 µM for the second.

CC(C)(C)OC(=O)Nc1ccc(Cl)c(COc2cnccn2)c1 and O=C(Nc1ccc(F)c(COc2cnccn2)c1)Oc1cccc(C(F)(F)F)c1 cannot be ordered by IC50: < 1000 µM for the first, < 20 µM for the second.

c1cc(COc2cnccn2)cc(Nc2nc3ccccc3o2)c1 and Cc1nc(-c2cccc(C(=O)Nc3ccc(F)c(COc4cnccn4)c3)c2)cs1 cannot be ordered by IC50: < 200 µM for the first, < 2 µM for the second.

Cc1ccc2ccccc2c1COc1cccnc1N and Cc1cccc(COc2cccnc2N)c1F cannot be ordered by IC50: < 100 µM for the first, < 1000 µM for the second.

In the case of CN1CCCC(CNC(=O)c2cnc(OCc3c(Cl)cccc3Cl)cn2)C1 (centres undefined), the IC50 is reported as < 1000 µM.
